Laboratory results taken from ChEMBL document CHEMBL1240309 (Nat Chem Biol, 2006).
Activity calls are given as the source filed them. The calls are words filed in the database; no cut-off is given here.

What was measured:
[1] = tested on: Caenorhabditis elegans; experiment: Antiapoptotic activity against Caenorhabditis elegans ced-3(n2438) mutant assessed as number of extra cells in anterior pharynx at 50 to 250 mM dissolved in soybean oil; format: functional, organism-based
[2] = Octanol-water partition coefficient, log P of the compound; format: physicochemical
[3] = tested on: Caenorhabditis elegans; experiment: Antiapoptotic activity against Caenorhabditis elegans ced-3(n2436) mutant assessed as number of extra cells in anterior pharynx L3 and L4 larvae at 250 mM dissolved in soybean oil; format: functional, organism-based
[4] = tested on: Caenorhabditis elegans; experiment: Antiapoptotic activity against Caenorhabditis elegans ced-4(n2273) mutant assessed as number of extra cells in anterior pharynx L3 and L4 larvae at 250 mM dissolved in soybean oil; format: functional, organism-based
[5] = tested on: Caenorhabditis elegans; experiment: Antiapoptotic activity against Caenorhabditis elegans ced-9(n1950) mutant assessed as number of extra cells in anterior pharynx L3 and L4 larvae at 250 mM dissolved in soybean oil; format: functional, organism-based
[6] = tested on: Caenorhabditis elegans; experiment: Antiapoptotic activity against Caenorhabditis elegans ced-8(n1891) mutant assessed as number of extra cells in anterior pharynx L3 and L4 larvae at 250 mM dissolved in soybean oil; format: functional, organism-based
[7] = tested on: Caenorhabditis elegans; experiment: Antiapoptotic activity against Caenorhabditis elegans ced-3(n2433) mutant assessed as number of extra cells in anterior pharynx L3 and L4 larvae at 250 mM dissolved in soybean oil; format: functional, organism-based
[8] = tested on: Caenorhabditis elegans; experiment: Antiapoptotic activity against Caenorhabditis elegans ced-3(n2447) S446L mutant assessed as number of extra cells in anterior pharynx L3 and L4 larvae at 250 mM dissolved in soybean oil; format: functional, organism-based
[9] = tested on: Caenorhabditis elegans; experiment: Antiapoptotic activity against Caenorhabditis elegans ced-3(n2438) G474R mutant assessed as number of extra cells in anterior pharynx L3 and L4 larvae at 250 mM dissolved in soybean oil; format: functional, organism-based

SMILES	Activity [1]	logP [2]	Activity [3]	Activity [4]	Activity [5]	Activity [6]	Activity [7]	Activity [8]	Activity [9]
CCCCC(CC)COC(=O)c1ccccc1C(=O)OCC(CC)CCCC (centres undefined)	inactive	–	–	–	–	–	–	–	–
Clc1ccc(Cl)cc1 [1,4-DICHLOROBENZENE]	–	3.5	Active	Active	Active	Active	Active	Active	Active
